According to patent US7700559B2, “Gonadotropin releasing hormone analogues conjugates with steroid hormones” (Medical Research Council, priority 2003, dated 2010):

What was measured:
[1] = target: T1, type I human GnRH receptor (Homo sapiens, UniProt P30968); assay: Membrane binding assay of GnRH agonist-progesterone conjugate, COS-1 cells transfected with hGnRH-R, 125I[His5,D-Tyr6]GnRH; conditions: n=1, data not shown, read-out: ED50, binding to type I human GnRH receptor
T1 construct: expressed in transfected cells; host or cells: COS-1 cells (membranes)
T1 sequence (P30968 1-328): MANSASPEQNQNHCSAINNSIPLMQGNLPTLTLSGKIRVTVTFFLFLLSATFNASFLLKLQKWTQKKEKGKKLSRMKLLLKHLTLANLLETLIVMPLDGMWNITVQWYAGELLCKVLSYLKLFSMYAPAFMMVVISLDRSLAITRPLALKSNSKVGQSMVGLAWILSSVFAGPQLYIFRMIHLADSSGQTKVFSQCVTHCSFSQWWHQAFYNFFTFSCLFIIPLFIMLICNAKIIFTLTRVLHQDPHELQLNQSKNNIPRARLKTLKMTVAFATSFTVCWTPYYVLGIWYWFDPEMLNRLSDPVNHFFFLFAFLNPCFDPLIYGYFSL
Procedure: Membrane binding assay of GnRH agonist-progesterone conjugates was carried out on COS-1 cells transfected with hGnRH-R. COS-1 cells in 100 mm dishes were washed twice in HEPES modified DMEM and transfected with 15 μg DNA in filter-sterilised DEAE dextran with HEPES buffered saline, penicillin/streptomycin and DMEM. After five hours incubation at 37° C., the media was removed and replaced with DMEM containing penicillin/streptomycin, 2% FCS and 2% chloroquine 10 mM and plates were incubated for a further one hour. The media was aspirated, cells were washed and normal media was added until assay 24 hours later.
Membrane Binding Assay of GnRH agonist-Progesterone Conjugate:
Transfected COS-1 cells were washed in PBS, removed from plates and centrifuged at 1500 rpm for five mins to pellet cells. The PBS was aspirated and the cells were resuspended in homogenization buffer (20 mM Tris, 2 mM MgCl2, pH 7.2), vortexed and left on ice for 10 minutes. The cell suspension was transferred to a 7 ml homogeniser (Jencons (Scientific) Ltd., Leighton Buzzard, Buckinghamshire) and plunged 15 times with a loose plunger and 15 times with a tight plunger. The homogenized cells were then centrifuged at 4° C. for 10 mins at top speed and the supernatant was removed with a vacuum pump. […] Filters were then counted immediately on a gamma counter.

rat type I GnRHR = target: T2, rat type I GnRHR (Rattus norvegicus, UniProt P30969); assay: Total inositol phosphate production in HEK293 cells stably expressing rat type I GnRHR; type: cell-based; conditions: n=2, read-out: EC50, stimulation of inositol phosphate production
T2 construct: expressed in transfected cells
T2 sequence (P30969 1-327): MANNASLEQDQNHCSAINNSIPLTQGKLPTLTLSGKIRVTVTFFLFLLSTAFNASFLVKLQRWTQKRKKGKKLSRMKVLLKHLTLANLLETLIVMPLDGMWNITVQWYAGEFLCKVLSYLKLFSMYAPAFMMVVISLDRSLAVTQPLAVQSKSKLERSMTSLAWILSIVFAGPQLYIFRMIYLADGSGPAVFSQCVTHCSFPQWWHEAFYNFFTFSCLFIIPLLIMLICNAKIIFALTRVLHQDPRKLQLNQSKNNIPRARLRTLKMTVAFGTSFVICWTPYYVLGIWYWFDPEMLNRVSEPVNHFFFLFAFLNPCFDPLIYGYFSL
Procedure: A HEK293 stable cell line expressing the rat type I GnRHR developed in our laboratory was used for the inositol phosphate production assays. This cell line was maintained in DMEM containing 10% fetal calf serum, glutamine and penicillin/streptomycin with the addition of G418 at 500 μg/ml throughout culture. Where required, plates were coated with Poly-L-Lysine to enhance adherence to plasticware during assay.
Measurement of Total Inositol Phosphate Production
Rat type I GnRH receptive expressing HEK293 cells were plated out onto 12 well plates and incubated at 37° C., 5% CO2 for 24 hours, then incubated in special DMEM containing 1% dialysed FCS (with glutamine and penicillin/streptomycin) and 1 μl/well of myo-[2-^3H]inositol for a further 48 hours. After aspiration of media and washing with incubation buffer, a further 500 μl buffer containing 10 mM LiCl was added to the plates and then incubated at 37° C. for 30 mins. 1 μM agonist was added to each well to a final concentration of 0.1 μM and the plates were incubated under the same conditions for a further 1 hour. The reaction was terminated with 500 μl 10 mM formic acid, incubated at 4° C. for 30 mins. […] After addition of formic acid, ammonium formate (1 ml, 0.1M, 1M) and vortexing, 800 μl of the supernatant was counted with scintillation fluid.

[2] = target: progesterone binding globulin (PBG); assay: Plasma protein binding assay, competition with [3H]progesterone in pregnant guinea pig plasma; conditions: read-out: IC50, inhibition of [3H]progesterone binding to PBG
Procedure: (§1) Plasma Protein Binding Assay
(§2) Plasma protein binding was determined by the competitive binding of steroid conjugates, in the presence of [1,2,6,7-^3H]progesterone or [^3H]cortisol, to pregnant guinea pig plasma or human pregnant serum respectively. 20 μl serum was diluted with 2 ml dextran-coated charcoal solution (0.25 g dextran T-70, 2.5 g charcoal decolorizing powder, activated acid washed [Merck Ltd., Lutterworth, Leicestershire] in 500 ml PBS) and incubated at room temperature. After 30 mins the suspension was centrifuged at 3000×g for 10 minutes, the supernatant was removed and the pellet was discarded. 100 μl of diluted serum was aliquoted into centrifuge tubes, followed by 1 pmol[^3H]steroid/100 μl PBS. 100 μl PBS (total binding) or 200 pmol/100 μl unlabelled competing ligand ([…]) was added to diluted serum in duplicate. Tubes were vortexed and incubated at room temperature for 1 hour, then for an additional 15 minutes on ice. A further 750 μl dextran-coated charcoal suspension was added and incubated for 10 minutes on ice, followed by centrifugation at 4° C. for 5 minutes. The supernatant fluid was counted.

[3] = target: T3, cortisol binding globulin (CBG) (Homo sapiens, UniProt P08185); assay: Plasma protein binding assay, competition with [3H]cortisol in human pregnant serum; conditions: data not shown, read-out: IC50, prevention of [3H]cortisol binding
T3 construct: from tissue; host or cells: human pregnant serum (charcoal-stripped, diluted)
T3 sequence (P08185 23-405): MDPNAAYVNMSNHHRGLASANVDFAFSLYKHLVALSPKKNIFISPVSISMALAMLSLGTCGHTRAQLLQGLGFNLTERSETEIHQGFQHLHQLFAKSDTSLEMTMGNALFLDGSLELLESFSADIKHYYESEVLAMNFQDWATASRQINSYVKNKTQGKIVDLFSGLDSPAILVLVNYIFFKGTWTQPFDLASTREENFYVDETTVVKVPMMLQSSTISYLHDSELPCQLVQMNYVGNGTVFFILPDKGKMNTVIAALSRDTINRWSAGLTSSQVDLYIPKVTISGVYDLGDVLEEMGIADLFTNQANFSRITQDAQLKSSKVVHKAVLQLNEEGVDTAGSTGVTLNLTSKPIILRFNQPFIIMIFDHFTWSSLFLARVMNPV
Procedure: as §1, §2

[4] = In vivo male rabbit study, disappearance of iodinated analogue from whole blood; conditions: iodinated compound i.v. into ear vein, male rabbit, whole blood
Procedure: In Vivo Studies in the Male Rabbit
To determine biological half-life of GnRH agonist-progesterone conjugates, 0.5 ml saline containing approximately 10,000,000 cpm of iodinated [D-Ala^6]GnRH or [D-Lys^6]GnRH-progesterone conjugate was injected as an i.v. bolus into the ear vein of a male rabbit. Rabbits were sedated with 0.4 ml Aceprom 10 (Milborrow Animal Health, Republic of South Africa) injected intramuscularly 3-4 minutes before start of experiment. A repeat injection was carried out after 2 hours. 1 ml blood samples were collected in heparinized tubes from an indwelling cannula placed in a vein of the contralateral ear. Whole blood was counted directly to determine disappearance from circulation. All experiments were carried out in accordance with Republic of South Africa regulations.

Structure (SMILES): CC(=O)[C@H]1CC[C@H]2[C@@H]3CCC4=CC(=O)CC[C@]4(C)[C@H]3[C@H](OC(=O)CCC(=O)NCCCC[C@@H](NC(=O)[C@H](Cc3ccc(O)cc3)NC(=O)[C@H](CO)NC(=O)[C@H](Cc3c[nH]c4ccccc34)NC(=O)[C@H](Cc3c[nH]cn3)NC(=O)[C@@H]3CCC(=O)N3)C(=O)N[C@@H](CC(C)C)C(=O)N[C@@H](CCCNC(=N)N)C(=O)N3CCC[C@H]3C(=O)NCC(N)=O)C[C@]12C [GnRH agonist-progesterone conjugate, [DLys^6]GnRH conjugated to 11α-hydroxyprogesterone 11-succinate at the ε amine group of the D-Lys at position 6]
- EC50 [1]: 0.29 nM
- EC50 (rat type I GnRHR): 0.52 nM
- IC50 [2]: 0.29 nM
- IC50 [3]: 1200 nM
- second phase half-life (metabolism and renal clearance) [4]: 53 ± 13 min
